Source: patent US20040247674A1, “Drug delivery system” (priority 2001, published 2004)

Experiment: release rates of active agents from core-membrane implants
Type: physicochemical
Settings: for release rate over time: Example 4 implant (FIG. 12): membrane PDMS/trifluoropropyl modified PDMS, fluoro-content 55 wt-%, thickness 0.25 mm
Excerpt: The implant structure was as disclosed in FIG. 2. The first part of the core consisted of PDMS comprising levonorgestrel and the length was 35 mm. The second part of the core consisted of PEO-PDMS having 50% of PEO, comprising estradiol, and the length was 8 mm.
The core parts were encased in a membrane consisting of PEO-PDMS in a ratio of 10:90. The thickness of the membrane was 0.2 mm and the outer diameter of the implant 2.48 mm.
The implant structure was as disclosed in FIG. 2. The first part of the core consisted of PEO-PDMS in a ratio of 50:50 comprising compound 1 and the length was 34 mm. The second part of the core consisted of PEO-PDMS having 50% of PEO, comprising estradiol, and the length was 6 mm.
The core parts were encased in a membrane consisting of PEO-PDMS in a ratio of 20:80. The thickness of the membrane was 0.2 mm and the outer diameter of the implant 2.48 mm.
The implant structure was as disclosed in FIG. 2. The first part of the core consisted of Pt-catalysed PDMS comprising 60 weight-% MENT having a length of 44 mm and a diameter of 3.0 mm. The second part of the core consisted of peroxide-catalysed PDMS comprising 50 weight-% gestodene having a length of 12 mm and a diameter of 3.0 mm.
Both core parts were encapsulated by a membrane consisting of a mixture of PDMS and trifluoropropyl modified PDMS. The fluoro-content in the membrane varied from 55 weight-% to 75 weight-%. The thickness of the membrane was 0.25 or 0.35 mm and thus the outer diameter of the implant 3.5 or 3.7 mm, respectively.
MENT is represented by the trinagles and gestodene by the lozenges.

SMILES	release rate over time	release rate of compound 1 versus target (Example 2 implant (FIG. 10): PEO-PDMS 50:50 core part 34 mm, membrane PEO-PDMS 20:80, 0.2 mm, target 50 μg/day)	release rate of gestodene, membrane thickness 0.25 mm compared with 0.35 mm (Example 4 implant (FIG. 14): membrane fluoro-content 60 wt-%)
C[C@@H]1CC2=CC(=O)CC[C@@H]2[C@H]2CC[C@]3(C)[C@@H](O)CC[C@H]3[C@@H]21 [MENT, 7-α-methyl-19-nortestosterone]	essentially constant over time		
CC(=O)c1ccc(C2C[C@@]3(C)[C@@H](CCC3(O)C(F)(F)C(F)(F)F)[C@@H]3CCC4=CC(=O)CCC4=C23)cc1 (stereo partly shown) [compound 1, 11-(4-Acetylphenyl)-17-hydroxy-17-(1,1,2,2,2-pentafluoroethyl)estra-4,9-dien-3-one]		target release rates were obtained	
C#C[C@]1(O)C=C[C@H]2[C@@H]3CCC4=CC(=O)CC[C@@H]4[C@H]3CC[C@@]21CC [gestodene]	essentially constant over time		higher
